The text below walks through data of US7304050B2, “Antibacterial agents” (Pfizer Inc., priority 2003, dated 2007).

One assay deals with S pyogenes C203. In words: Antibacterial assay (Test A), microtitration MIC, Gram positive. Type of assay: cell-based. To be noted: Gram Positive Bacteria, strain C203; for MIC: read-out: Minimum Inhibitory Concentrations S pyogenes C203. The protocol:
(§1) The compounds of the present invention were tested against an assortment of Gram-negative and Gram-positive organisms using standard microtitration techniques (Cohen et. al., Antimicrob., 1985;28:766;Heifetz, et. al., Antimicrob., 1974;6: 124).

The subject of a further assay is S. aureus UC-76. The description is as above. In kind it is cell-based. The note with it: Gram Positive Bacteria, strain UC-76; for MIC: Staphylococcus aureus, UC76, read-out: Minimum Inhibitory Concentrations S. aureus UC-76. The procedure: as §1
The next assay concerns E. faecalis MGH-2. Described as above. Type of assay: cell-based. To be noted: Gram Positive Bacteria, strain MGH-2; for MIC: Enterococcus faecalis, MGH2, read-out: Minimum Inhibitory Concentrations E. faecalis MGH-2. The protocol:
as §1

In the next assay the test system is H. influenzae HI3542. The experiment in a line: Antibacterial assay (Test A), microtitration MIC, Gram negative. To be noted: Gram Negative Bacteria, strain HI3542; for MIC: Haemophilus influenzae, read-out: Minimum Inhibitory Concentrations H. influenzae HI3542. Type of assay: cell-based. The protocol: as §1
The test system of the next assay is M. catarrhalis BC3534. Described as above. In kind it is cell-based. To be noted: Gram Negative Bacteria, strain BC3534; for MIC: Moraxella catarrhalis, read-out: Minimum Inhibitory Concentrations M. catarrhalis BC3534. The procedure: as §1
Another assay concerns E. coli Tol C. The description is as above. Type of assay: cell-based. To be noted: for MIC: Escherichia coli, read-out: Minimum Inhibitory Concentrations E. coli Tol C. The procedure:
as §1

For assay [1], the system named is E. coli transcription and translation (TnT). In kind it is biochemical.

In brackets after ≈: the same amount, converted by molar mass.

With `CCn1cc(C(=O)O)c(=O)c2cc(F)c(N3CCCc4cc(N5C[C@H](CNC(C)=O)OC5=O)ccc4C3)nc21` [Example 17, 7-{7-[5-(Acetylamino-methyl)-2-oxo-oxazolidin-3-yl]-1,3,4,5-tetrahydro-benzo[c]azepin-2-yl}-1-ethyl-6-fluoro-4-oxo-1,4-dihydro-[1,8]naphthyridine-3-carboxylic Acid], the MIC was 64 µg/mL (≈ 119 µM) in the assay with S pyogenes C203; 64 µg/mL (≈ 119 µM) with S. aureus UC-76; 64 µg/mL (≈ 119 µM) with E. faecalis MGH-2; 0.5 µg/mL (≈ 0.93 µM) in the assay with H. influenzae HI3542; 64 µg/mL (≈ 119 µM) in the assay on M. catarrhalis BC3534; 64 µg/mL (≈ 119 µM) in the assay with E. coli Tol C.
`CC(=O)NC[C@H]1CN(c2ccc3c(c2)CCN(c2c(F)cc4c(=O)c(C(=O)O)cn(C5CC5)c4c2Cl)CC3)C(=O)O1` [Example 10, 7-{7-[5-(Acetylamino-methyl)-2-oxo-oxazolidin-3-yl]-1,2,4,5-tetrahydro-benzo[d]azepin-3-yl}-8-chloro-1-cyclopropyl-6-fluoro-4-oxo-1,4-dihydro-quinoline-3-carboxylic Acid]: the MIC with S pyogenes C203 is 0.25 µg/mL (≈ 0.429 µM); with S. aureus UC-76, 0.06 µg/mL (≈ 0.103 µM); in the assay on E. faecalis MGH-2, 0.25 µg/mL (≈ 0.429 µM); with H. influenzae HI3542 it was 0.06 µg/mL (≈ 0.103 µM); in the assay on M. catarrhalis BC3534 it was 0.13 µg/mL (≈ 0.223 µM); in the assay on E. coli Tol C, 1 µg/mL (≈ 1.72 µM). The “Inhibitory concentration in E. coli cell-free transcription/translation (TnT) assay” value in assay [1] worked out at 5.4 µg/mL.
With `CC(=O)NC[C@H]1CN(c2ccc3c(c2)CCCN(c2c(F)cc4c(=O)c(C(=O)O)cn(C5CC5)c4c2Cl)C3)C(=O)O1` [Example 1, 7-{7-[5-(Acetylamino-methyl)-2-oxo-oxazolidin-3-yl]-1,3,4,5-tetrahydro-benzo[c]azepin-2-yl}-8-chloro-1-cyclopropyl-6-fluoro-4-oxo-1,4-dihydro-quinoline-3-carboxylic Acid], the MIC in the assay on S pyogenes C203 stood at 2 µg/mL (≈ 3.43 µM); with S. aureus UC-76 it was 0.06 µg/mL (≈ 0.103 µM); in the assay on E. faecalis MGH-2, 1 µg/mL (≈ 1.72 µM); with H. influenzae HI3542 it was 0.06 µg/mL (≈ 0.103 µM); with M. catarrhalis BC3534 it was 0.25 µg/mL (≈ 0.429 µM); in the assay with E. coli Tol C, 2 µg/mL (≈ 3.43 µM). Further, the “Inhibitory concentration in E. coli cell-free transcription/translation (TnT) assay” value in assay [1] amounted to 9.4 µg/mL.
As to `COc1c(N2CCCc3cc(N4C[C@H](CNC(C)=O)OC4=O)ccc3C2)c(F)cc2c(=O)c(C(=O)O)cn(C3CC3)c12` (stereo in doubt) [Example 4, 7-{7-[5-(Acetylamino-methyl)-2-oxo-oxazolidin-3-yl]-1,3,4,5-tetrahydro-benzo[c]azepin-2-yl}-1-cyclopropyl-6-fluoro-8-methoxy-4-oxo-1,4-dihydro-quinoline-3-carboxylic Acid], the MIC was found to be 1 µg/mL (≈ 1.73 µM) in the assay on S pyogenes C203; 0.06 µg/mL (≈ 0.104 µM) with S. aureus UC-76; 1 µg/mL (≈ 1.73 µM) in the assay with E. faecalis MGH-2; 0.06 µg/mL (≈ 0.104 µM) in the assay with H. influenzae HI3542; 0.5 µg/mL (≈ 0.864 µM) in the assay on M. catarrhalis BC3534; 2 µg/mL (≈ 3.46 µM) in the assay with E. coli Tol C. Moreover, the “Inhibitory concentration in E. coli cell-free transcription/translation (TnT) assay” value in assay [1] worked out at 4.0 µg/mL.
For `CC(=O)NC[C@H]1CN(c2ccc3c(c2)CCCN(c2cc4c(c(C)c2F)c(=O)c(C(=O)O)cn4C2CC2)C3)C(=O)O1` [Example 3, 7-{7-[5-(Acetylamino-methyl)-2-oxo-oxazolidin-3-yl]-1,3,4,5-tetrahydro-benzo[c]azepin-2-yl}-1-cyclopropyl-6-fluoro-5-methyl-4-oxo-1,4-dihydro-quinoline-3-carboxylic Acid], the MIC in the assay on S pyogenes C203 amounted to 16 µg/mL (≈ 28.4 µM); with S. aureus UC-76, 1 µg/mL (≈ 1.78 µM); in the assay on E. faecalis MGH-2, 32 µg/mL (≈ 56.9 µM); in the assay on H. influenzae HI3542, 0.06 µg/mL (≈ 0.107 µM); in the assay on M. catarrhalis BC3534 it was 16 µg/mL (≈ 28.4 µM); in the assay with E. coli Tol C, 32 µg/mL (≈ 56.9 µM).
For the compound `CC(=O)NC[C@H]1CN(c2ccc3c(c2)CCN(c2c(F)cc4c(=O)c(C(=O)O)cn(C5CC5)c4c2F)CC3)C(=O)O1` [Example 12, 7-{7-[5-(Acetylamino-methyl)-2-oxo-oxazolidin-3-yl]-1,2,4,5-tetrahydro-benzo[d]azepin-3-yl}-1-cyclopropyl-6,8-difluoro-4-oxo-1,4-dihydro-quinoline-3-carboxylic Acid], the MIC is 1 µg/mL (≈ 1.77 µM) with S pyogenes C203; 0.25 µg/mL (≈ 0.441 µM) in the assay with S. aureus UC-76; 1 µg/mL (≈ 1.77 µM) in the assay on E. faecalis MGH-2; 0.06 µg/mL (≈ 0.106 µM) in the assay on H. influenzae HI3542; 0.25 µg/mL (≈ 0.441 µM) in the assay on M. catarrhalis BC3534; 4 µg/mL (≈ 7.06 µM) with E. coli Tol C. Also, the “Inhibitory concentration in E. coli cell-free transcription/translation (TnT) assay” value in assay [1] is 9.3 µg/mL.
For the compound `COc1c(N2CCc3ccc(N4C[C@H](CNC(C)=O)OC4=O)cc3CC2)c(F)cc2c(=O)c(C(=O)O)cn(C3CC3)c12` [Example 7, 7-{7-[5-(Acetylamino-methyl)-2-oxo-oxazolidin-3-yl]-1,2,4,5-tetrahydro-benzo[d]azepin-3-yl}-1-cyclopropyl-6-fluoro-8-methoxy-4-oxo-1,4-dihydro-quinoline-3-carboxylic Acid], the MIC was 1 µg/mL (≈ 1.73 µM) in the assay with S pyogenes C203; 0.06 µg/mL (≈ 0.104 µM) in the assay on S. aureus UC-76; 0.5 µg/mL (≈ 0.864 µM) in the assay on E. faecalis MGH-2; 0.06 µg/mL (≈ 0.104 µM) in the assay with H. influenzae HI3542; 0.25 µg/mL (≈ 0.432 µM) in the assay with M. catarrhalis BC3534; 2 µg/mL (≈ 3.46 µM) with E. coli Tol C. Further, the “Inhibitory concentration in E. coli cell-free transcription/translation (TnT) assay” value in assay [1] was 11.8 µg/mL.
As for `CC(=O)NC[C@H]1CN(c2ccc3c(c2)CCN(c2nc4c(cc2F)c(=O)c(C(=O)O)cn4-c2ccc(F)cc2F)CC3)C(=O)O1` [Example 8, 7-{7-[5-(Acetylamino-methyl)-2-oxo-oxazolidin-3-yl]-1,2,4,5-tetrahydro-benzo[d]azepin-3-yl}-1-(2,4-difluoro-phenyl)-6-fluoro-4-oxo-1,4-dihydro-[1,8]naphthyridine-3-carboxylic Acid], the MIC with S pyogenes C203 was determined as 8 µg/mL (≈ 12.9 µM); in the assay on S. aureus UC-76, 0.5 µg/mL (≈ 0.804 µM); with E. faecalis MGH-2 it was 16 µg/mL (≈ 25.7 µM); in the assay on H. influenzae HI3542, 0.06 µg/mL (≈ 0.0965 µM); in the assay with M. catarrhalis BC3534 it was 2 µg/mL (≈ 3.22 µM); in the assay on E. coli Tol C, 2 µg/mL (≈ 3.22 µM). Also, the “Inhibitory concentration in E. coli cell-free transcription/translation (TnT) assay” value in assay [1] turned out to be 23.0 µg/mL.
Turning to `CC(=O)NC[C@H]1CN(c2ccc3c(c2)CCN(c2cc4c(cc2F)c(=O)c(C(=O)O)cn4C2CC2)CC3)C(=O)O1` [Example 9, 7-{7-[5-(Acetylamino-methyl)-2-oxo-oxazolidin-3-yl]-1,2,4,5-tetrahydro-benzo[d]azepin-3-yl}-1-cyclopropyl-6-fluoro-4-oxo-1,4-dihydro-quinoline-3-carboxylic Acid], the MIC in the assay with S pyogenes C203 is 4 µg/mL (≈ 7.29 µM); in the assay on S. aureus UC-76, 0.13 µg/mL (≈ 0.237 µM); in the assay with E. faecalis MGH-2, 8 µg/mL (≈ 14.6 µM); with H. influenzae HI3542 it was 0.06 µg/mL (≈ 0.109 µM); with M. catarrhalis BC3534, 0.5 µg/mL (≈ 0.911 µM); in the assay on E. coli Tol C, 4 µg/mL (≈ 7.29 µM). Moreover, the “Inhibitory concentration in E. coli cell-free transcription/translation (TnT) assay” value in assay [1] worked out at 13.0 µg/mL.
Take `COc1c(N2CCc3ccc(N4C[C@H](CNC(C)=O)OC4=O)cc3CC2)c(F)c(C)c2c(=O)c(C(=O)O)cn(C3CC3)c12` [Example 6, 7-{7-[5-(Acetylamino-methyl)-2-oxo-oxazolidin-3-yl]-1,2,4,5-tetrahydro-benzo[d]azepin-3-yl}-1-cyclopropyl-6-fluoro-8-methoxy-5-methyl-4-oxo-1,4-dihydro-quinoline-3-carboxylic Acid]: the MIC is 0.25 µg/mL (≈ 0.422 µM) with S pyogenes C203; 0.06 µg/mL (≈ 0.101 µM) in the assay on S. aureus UC-76; 0.25 µg/mL (≈ 0.422 µM) in the assay with E. faecalis MGH-2; 0.06 µg/mL (≈ 0.101 µM) with H. influenzae HI3542; 0.13 µg/mL (≈ 0.219 µM) in the assay on M. catarrhalis BC3534; 2 µg/mL (≈ 3.37 µM) in the assay with E. coli Tol C. Besides, the “Inhibitory concentration in E. coli cell-free transcription/translation (TnT) assay” value in assay [1] is 9.6 µg/mL.
`CC(=O)NC[C@H]1CN(c2ccc3c(c2)CCCN(c2c(F)cc4c(=O)c(C(=O)O)cn(C5CC5)c4c2F)C3)C(=O)O1` (stereo in doubt) [Example 13, 7-{7-[5-(Acetylamino-methyl)-2-oxo-oxazolidin-3-yl]-1,3,4,5-tetrahydro-benzo[c]azepin-2-yl}-1-cyclopropyl-6,8-difluoro-4-oxo-1,4-dihydro-quinoline-3-carboxylic Acid]: the MIC in the assay on S pyogenes C203 was determined as 2 µg/mL (≈ 3.53 µM); with S. aureus UC-76 it was 0.5 µg/mL (≈ 0.883 µM); with E. faecalis MGH-2, 8 µg/mL (≈ 14.1 µM); in the assay with H. influenzae HI3542 it was 0.06 µg/mL (≈ 0.106 µM); in the assay with M. catarrhalis BC3534, 1 µg/mL (≈ 1.77 µM); in the assay with E. coli Tol C, 4 µg/mL (≈ 7.06 µM). For the same compound, in assay [1], the “Inhibitory concentration in E. coli cell-free transcription/translation (TnT) assay” value came out at 0.6 µg/mL.
For the compound “7-{7-[5-(Acetylamino-methyl)-2-oxo-oxazolidin-3-yl]-1,3,4,5-tetrahydro-benzo[c]azepin-2-yl}-1-cyclopropyl-8-difluoromethoxy-6-fluoro-4-oxo-1,4-dihydro-[1,8]naphthyridine-3-carboxylic Acid [Example 18]”, the “Minimum Inhibitory Concentrations S pyogenes C203” value with S pyogenes C203 is 0.06 µg/mL. For the same compound, in the assay with S. aureus UC-76, the “Minimum Inhibitory Concentrations S. aureus UC-76” value is 1 µg/mL. In addition, in the assay with E. faecalis MGH-2, the “Minimum Inhibitory Concentrations E. faecalis MGH-2” value turned out to be 8 µg/mL. In addition, in the assay on H. influenzae HI3542, the “Minimum Inhibitory Concentrations H. influenzae HI3542” value was 0.06 µg/mL. In addition, in the assay on M. catarrhalis BC3534, the “Minimum Inhibitory Concentrations M. catarrhalis BC3534” value is 2 µg/mL. Besides, the “Minimum Inhibitory Concentrations E. coli Tol C” value in the assay with E. coli Tol C (Gram Negative Bacteria, strain Tol C) turned out to be 16 µg/mL.
As for `CC(=O)NC[C@H]1CN(c2ccc3c(c2)CCCN(c2nc4c(cc2F)c(=O)c(C(=O)O)cn4C2CC2)C3)C(=O)O1` (stereo in doubt) [Example 15, 7-{7-[5-(Acetylamino-methyl)-2-oxo-oxazolidin-3-yl]-1,3,4,5-tetrahydro-benzo[c]azepin-2-yl}-1-cyclopropyl-6-fluoro-4-oxo-1,4-dihydro-[1,8]naphthyridine-3-carboxylic Acid], the MIC with S pyogenes C203 came to 4 µg/mL (≈ 7.28 µM); with S. aureus UC-76, 2 µg/mL (≈ 3.64 µM); with E. faecalis MGH-2, 4 µg/mL (≈ 7.28 µM); in the assay on H. influenzae HI3542, 0.06 µg/mL (≈ 0.109 µM); with M. catarrhalis BC3534, 4 µg/mL (≈ 7.28 µM); in the assay with E. coli Tol C, 4 µg/mL (≈ 7.28 µM).
